Laboratory results as given in patent US9901592B2 (priority 2008, dated 2018).
Converted amounts (≈) assume the structure as drawn. “And” between values parts separate entries of the source, which are not always exact repeats. Equal values may be shown once. Read-outs that look alike come from different tables or passages of the source.

Assays:
[1] = system: S. pneumoniae; test: microbe, parasite or virus in culture; assay type: cell-based
[2] = system: N. meningitidis; test: MIC, CLSI broth microdilution, invasive isolates; assay type: cell-based; conditions: for MIC / MIC50 / MIC90: Neisseria meningitidis, 62 N. meningitidis isolates
Method: Example. […] Colonization of the nasopharynx (NP) by NM can lead to invasive meningococcal disease. Chemoprophylaxis is used to eradicate NP colonization and prevent transmission to nonimmune contacts. […] 62 isolates (91.9% blood culture) of NM were collected from 29 medical centers in North and South America and Europe (1997-2008). […] Serological identification was performed for serogroups (SGs) B, C, Y and W135.

[3] = system: S. pneumoniae; assay type: cell-based
[4] = system: M. pneumoniae; test: microbe, parasite or virus in culture; assay type: cell-based
[5] = system: M. genitalium; assay type: cell-based; conditions: M. genitalium (5 isolates)
[6] = system: M. fermentans; assay type: cell-based; conditions: M. fermentans (15 isolates)
[7] = system: U. urealyticum; test: MIC testing in 10B broth (colour change); assay type: cell-based
[8] = system: M. hominis; assay type: cell-based
[9] = system: U. parvum; test: MIC testing in 10B broth (colour change); assay type: cell-based, Ureaplasma parvum
[10] = system: pneumococci; test: microbe, parasite or virus in culture; assay type: cell-based, S. pneumoniae
[11] = system: M. catarrhalis; test: microbe, parasite or virus in culture; assay type: cell-based
[12] = system: group A streptococci; test: microbe, parasite or virus in culture; assay type: cell-based, S. pyogenes
[13] = system: S. aureus; assay type: cell-based
[14] = system: streptococci; test: organism not typed; assay type: cell-based
[15] = Ureaplasma urealyticum, U. urealyticum (10 isolates)
[16] = Streptococcus pneumoniae, pneumococci, L4 mutations (27)

In the case of CO/N=C(\C(=O)N[C@@H]1C(=O)N2C(C(=O)O)=C(CSc3nc(=O)c(=O)[nH]n3C)CS[C@H]12)c1csc(N)n1 [CRO, ceftriaxone], the nonsusceptibility [1] was 33.3%, the “% Susc.” value ([2]; CLSI (M100-S19, 2009) criteria) was 100.0% and the MIC [2] was at most 0.015 µg/mL. For the same compound, the MIC50 [2] was at most 0.015 µg/mL and the MIC90 [2] was at most 0.015 µg/mL.

In the case of CC[C@H]1OC(=O)[C@@](C)(F)C(=O)[C@H](C)[C@@H](OC2OC(C)CC(N(C)C)C2O)[C@@](C)(OC)C[C@@H](C)C(=O)[C@H](C)[C@H]2N(CCCCn3cc(-c4ccccn4)nn3)C(=O)O[C@]12C (some centres unmarked) [Entry 23a], the MIC [3] was “≦0.125 μg/mL”.

For C[C@H]1c2cccc(O)c2C(=O)C2=C(O)[C@]3(O)C(=O)C(C(N)=O)=C(O)[C@@H](N(C)C)[C@@H]3[C@@H](O)[C@@H]21 [Doxycycline, doxycycline], the “MIC Range” value [4] was 0.016 to 0.25 µg/mL, the MIC50 ([4]; Mycoplasmoides pneumoniae) was 0.125 µg/mL (≈ 0.281 µM) and the MIC90 ([4]; Mycoplasmoides pneumoniae) was 0.25 µg/mL (≈ 0.563 µM). The “MIC Range” value [5] was “≦0.008-0.031 μg/mL”, the “MIC Range” value [6] was 0.016 to 0.5 µg/mL and the MIC50 ([6]; Mycoplasmopsis fermentans) was 0.125 µg/mL (≈ 0.281 µM). The MIC90 ([6]; Mycoplasmopsis fermentans) was 0.5 µg/mL (≈ 1.13 µM), the “MIC Range” value ([7]; U. urealyticum (10 isolates)) was 0.031 to 32 µg/mL and the MIC ([7]; Ureaplasma urealyticum, 4 doxycycline-resistant U. urealyticum) was 4 to 32 µg/mL (≈ 9 to 72 µM). For the same compound, the MIC50 [7, 15] was 1 µg/mL (≈ 2.25 µM), the MIC90 [7, 15] was 16 µg/mL (≈ 36 µM) and the “MIC Range” value ([8]; M. hominis (13 isolates)) was “≦0.008-0.016 μg/mL”. It also gave an MIC50 ([8]; Metamycoplasma hominis) of 0.125 µg/mL (≈ 0.281 µM), an MIC90 ([8]; Metamycoplasma hominis) of 8 µg/mL (≈ 18 µM) and an MIC ([8]; Metamycoplasma hominis, 2 doxycycline-resistant M. hominis isolates) of 8 to 16 µg/mL (≈ 18 to 36 µM). For the same compound, the MIC ([9]; 7 doxycycline-resistant Ureaplasma parvum) was 4 to 16 µg/mL (≈ 9 to 36 µM), the “MIC Range” value ([9]; U. parvum (10 isolates)) was 0.031 to 16 µg/mL and the MIC50 ([9]; Ureaplasma parvum, U. parvum (10 isolates), read-out: MIC50) was 8 µg/mL (≈ 18 µM). For the same compound, the MIC90 ([9]; Ureaplasma parvum, U. parvum (10 isolates), read-out: MIC90) was 16 µg/mL (≈ 36 µM).

CC[C@H]1OC(=O)[C@H](C)[C@@H](O[C@H]2C[C@@](C)(OC)[C@@H](O)[C@H](C)O2)[C@H](C)[C@@H](O[C@@H]2O[C@H](C)C[C@H](N(C)C)[C@H]2O)[C@](C)(O)C[C@@H](C)C(=O)[C@H](C)[C@@H](O)[C@]1(C)O [Erythromycin, erythromycin A] gave an MIC90 ([1]; Streptococcus pneumoniae) of over 32 µg/mL, an MIC50 [10, 16] of over 64 µg/mL and an MIC90 [10, 16] of over 64 µg/mL. For the same compound, the MIC90 ([11]; Moraxella catarrhalis) was 0.25 µg/mL (≈ 0.341 µM), the MIC [2] was 0.03 to 0.5 µg/mL (≈ 0.0409 to 0.681 µM) and the MIC50 [2] was 0.12 µg/mL (≈ 0.164 µM). It also gave an MIC90 [2] of 0.25 µg/mL (≈ 0.341 µM).

With C[C@H]1COc2c(N3CCN(C)CC3)c(F)cc3c(=O)c(C(=O)O)cn1c23 [Levo] the MIC50 [12] was 0.5 µg/mL (≈ 1.38 µM), the MIC90 [12] was 0.5 µg/mL and 1 µg/mL and the “MIC Range” value [12] was 0.5 to 1 µg/mL and 0.5 to 2 µg/mL. The MIC50 [10] was 1 µg/mL (≈ 2.77 µM), the “MIC Range” value [10] was 0.06 to 32 µg/mL and the MIC range [10] was 1 to 32 µg/mL.

In the case of CC[C@H]1OC(=O)[C@H](C)[C@@H](OC2CC(C)(OC)C(O)C(C)O2)[C@H](C)[C@@H](OC2OC(C)CC(N(C)C)C2O)[C@@](C)(OC)C[C@@H](C)C(=O)[C@H](C)[C@H]2N(CCCCn3cc(Cn4nnc5ccccc54)nn3)C(=O)O[C@]12C (some centres unmarked) [Entry 20e], the MIC [13] was 8 µg/mL (≈ 7.79 µM) and the MIC [3] was “≦0.0625 μg/mL”.

CC1(C)S[C@@H]2[C@H](NC(=O)Cc3ccccc3)C(=O)N2[C@H]1C(=O)O [Penicillin G] was tested, and the MIC50 [12] was 0.015 µg/mL (≈ 0.0449 µM), the MIC90 [12] was 0.015 µg/mL and 0.03 µg/mL and the MIC50 ([10]; pneumococci, L4 mutations (27)) was 4 µg/mL (≈ 12 µM). The MIC90 ([10]; pneumococci, L4 mutations (27)) was 16 µg/mL (≈ 47.8 µM).

CC[C@H]1OC(=O)[C@H](C)[C@@H](OC2CC(C)(OC)C(O)C(C)O2)[C@H](C)[C@@H](OC2OC(C)CC(N(C)C)C2O)[C@@](C)(OC)C[C@@H](C)C(=O)[C@H](C)[C@H]2N(CCCCn3cc(-c4cccnc4)nn3)C(=O)O[C@]12C (some centres unmarked) [Entry 20b] was tested, and the MIC [13] was 8 µg/mL (≈ 8.22 µM) and the MIC [3] was “≦0.0625 μg/mL”.

With quinupristin/dalfopristin [Q/D] the “MIC 50%” value [14] was 0.5 µg/mL, the “MIC 90%” value [14] was 0.5 µg/mL and 1 µg/mL and the “MIC 90%” value [1] was 1 µg/mL. The susceptible [1] was 100.0% and the “MIC 90%” value [11] was 0.5 µg/mL.

In the case of amoxicillin/clavulanate, the MIC50 [12] was 0.03 µg/mL and <0.015 µg/mL and 0.015 µg/mL, the MIC90 [12] was 0.03 µg/mL and 0.06 µg/mL and the “MIC Range” value [12] was 0.015 to 0.03 µg/mL and 0.03 µg/mL. The nonsusceptibility [1] was 88.9%, the “MIC Range” value [10] was 0.015 to 16 µg/mL and the MIC50 ([10]; pneumococci, L4 mutations (27)) was 4 µg/mL. The MIC90 ([10]; pneumococci, L4 mutations (27)) was 8 µg/mL and the MIC range ([10]; pneumococci, L4 mutations (27)) was 0.125 to 8 µg/mL.
